Experimental data as given in a melting point compilation (Tetko et al.; mined from patent text by program, amines drawn as free bases though some values may be those of a salt).

Structure (SMILES)	melting point [°C]
COC(=O)C(OCc1csc(-c2ccc(F)cc2)n1)C(=O)c1ccccc1 (centres undefined)	86 to 89
Nc1ccc(CCC(=O)NC23CC4CC(CC(C4)C2)C3)cc1N	151 to 152
c1ccc(CN2CCN(Cc3ccccc3)[C@@H](CCc3ccccn3)C2)cc1	83 to 86
C=C(C)C(=O)OCc1c(Br)c(Br)c(COC(=O)C(=C)C)c(Br)c1Br	148 to 149
O=S(=O)(c1ccc2ccccc2c1)N1CCCC1c1ccc(F)cc1 (racemic)	166
COC(=O)C(CCn1c(C(=O)c2ccccc2)cc(Br)c1Br)C(=O)OC	96 to 96.5
CC(C)(C)c1nc2ccc(Cl)nn2n1	128 to 130
CCN1CCc2cc(S(=O)(=O)C[N+](=O)[O-])ccc21	122
O=C(Nc1ccc(-n2nc(C3CC3)cc2C2CC2)cc1)c1ccc2nc[nH]c2c1	170 to 176
CCCS(=O)(=O)Nc1ccc(C(=O)c2nc(-c3cccc(C(=O)O)c3)c3ccccn23)cc1OC	145
CCCCCCCCCCCCCCCC(=O)n1nnnc1C(F)(F)F	66 to 69
Cc1cc(OCc2ccccc2)cc(C)c1CC(=O)OCc1ccccc1	62 to 64
CC(C)(C)c1ccccc1N1CCN(C(=O)c2ccc(F)cc2)CC1	137 to 139
Nc1ncnc2c1c(-c1ccc(Oc3ccccc3)cc1)cn2C1CCC2(CC1)OCCO2	193 to 194
N#Cc1c(N2CCCCC2)cc(-c2ccc3ccc4cccc5ccc2c3c45)c2c1-c1ccccc1C2=O	220 to 222
CC(C)(C)CC(C)(C)C(CCC(=O)OO)CC(=O)OO (centres undefined)	60 to 62
CC(C)NC(=O)c1c[nH]c2ncc(-c3nn(CCCN(C)C)c4cc(Cl)cc(F)c34)nc12	249 to 255
O=C(NCc1csc(C(F)(F)F)n1)c1ccnc(N2CCN(Cc3ccc(F)cc3)C2=O)c1	66 to 68
CC(C(=O)O)c1ccc2c(c1)Cc1cc(O)ccc1-2 (centres undefined)	205 to 207
O=C1C[C@@H](O)C[C@H](/C=C/c2c(Cl)cc(Cl)cc2Oc2ccccc2)O1 (relative stereo)	124 to 126
Cn1c(CNCC2(C)COC2)cc2cc(NC(=O)c3ccc(OCC4CC4)cc3)ccc21	154 to 155
O=c1c2c(n(-c3ccccc3)c3ccccc13)OCC2	220 to 221
Nc1cc(Oc2ccc(CCO)cc2)c(N)c2c1C(=O)c1ccccc1C2=O	224 to 227

Structure (SMILES)	melting point [°C]
CC1(C)Cc2c(c(N3CCOCC3)nc3sc4c(N(CCO)CCN5CCOCC5)ncnc4c23)CO1	112 to 113
CSc1nn(Cc2cccc(C(F)(F)F)c2)c(N)c1C#N	142
N=C(NCc1ccn(C2=CC3=C(CC2)CCc2[nH]c(=O)c(=O)n(CC(=O)O)c23)c1)Nc1ccccc1	> 225
Clc1ccc(-c2cccs2)cn1	124 to 126
CN(Cc1ccc(NC(=O)C2=Cc3cc(-c4ccc(N5CCCCC5)cc4)ccc3CCC2)cc1)C1CCOCC1	170 to 171
C=CC(=O)OCCNC(=O)CCc1cc(-n2nc3ccccc3n2)c(O)c(C(C)(C)C)c1	80 to 83
COc1ccc2cc(CC(O)C(C)=O)ccc2c1 (centres undefined)	107 to 110
OC1c2cc(OCc3nc4cc(F)ccc4s3)ccc2OCC1Oc1ccccc1 (centres undefined)	144 to 145
CC1CC(C)CN(C(=O)c2ccc(Cl)cc2)C1 (centres undefined)	114 to 115
COc1cc(Nc2nccc(-c3cccnc3)n2)cc(OC)c1OC	155
COc1cc2cc(CO)c(CO)c(-c3ccnc(N4CCC(O)c5ccccc54)c3)c2cc1OC (centres undefined)	90 to 94
N#Cc1ccc(Cn2c(=O)sc3c(=O)[nH]c(N)nc32)cc1	> 320
CCCc1c(C(=O)C(C)C)c2ccc(C(=O)O)cc2n1Cc1ccccc1Br	193 to 194
NCCN1CCOC(c2ccccc2)(c2ccccc2)CC1	75 to 80
CC1CC(=O)NN=C1c1ccc(NCCCN)c([N+](=O)[O-])c1 (centres undefined)	154 to 156
O=[N+]([O-])c1ccc(-c2cc(Br)sc2-c2ccc(F)cc2)cc1	129 to 130
Cc1ccc(-c2cc(N3CCC(C(N)=O)CC3)c3ccccc3n2)cc1	230 to 232
N#CCC(=NC#N)N1CCCC1	45
N#Cc1cnc2cc(/C=C/c3ccncc3)ccc2c1Nc1ccc(Cl)cc1Cl	240 to 242
COc1ccc(N2CC(CCN3CCC(O)(c4ccc5c(c4)OCO5)CC3)OC2=O)cc1 (centres undefined)	128 to 130
CCCCCCCCCCCCCCCC(=O)OC[C@H](O)COC(C)=O	37 to 37.5
CC(C)c1cccc(C(C)C)c1NC(=O)CN1CCN(CCSc2nc3cccc([N+](=O)[O-])c3o2)CC1	153 to 155
O=C(NCc1ccccc1)C1(CCCc2ccccc2)c2ccccc2-c2ccccc21	94

Structure (SMILES)	melting point [°C]
CCCOc1ccc2c(c1)C(c1ccccc1OCC(=O)O)C(C(=O)O)C2c1ccc2c(c1)OCO2 (centres undefined)	169 to 170
Cc1cc(C)n(C(=O)c2cn3c(C)csc3n2)n1	172 to 176
C#CC12CC3CC(C1)CC(C#C)(C3)C2	46
COc1cc2c(cc1O)/C(=N/OCc1ccc([N+](=O)[O-])cc1)CC2	146 to 149
C=CCCCCN1C(=O)c2ccccc2C1=O	17 to 20
C#Cc1cnn2ccc(-c3ccc(Cl)cc3)nc12	128 to 129
Cc1ccc(-c2ccc3c(c2)C=C(C(=O)OC(C)(C)C)CO3)cc1	80 to 82
Cc1ccc(Oc2ccc(C#CC(C)N(O)C(N)=O)o2)cn1 (centres undefined)	149
O=C1c2cc(Br)ccc2COc2ccccc21	104 to 106
C=CCn1cc(C(=O)OCC)c(=O)c2cc(C(=O)OC)ccc21	156 to 163
CC(C)(Sc1ccccc1)C(=O)O	62 to 64
Cc1sc(Cc2ccc(Br)cc2)c(C(=O)c2ccc(OS(=O)(=O)c3cnn(C)c3)c(C3CCCC3)c2)c1C	55 to 60
CC(C)c1cccc(C(C)C)c1NC(=O)CN1CCCN(CCCSc2nc3ncccc3o2)CC1	73 to 75
CC(C)C[C@H](NC(=O)[C@H](Cc1c[nH]cn1)NC(=O)[C@H](Cc1cccc2ccccc12)NC(=O)OCc1ccccc1)[C@H](O)CO	176 to 178
COc1ccc(CC(C)NCC(O)c2cccc(Br)c2)cc1 (centres undefined)	79 to 83
Cc1ccc(C(=O)S[C@@H](C)C(=O)N2CSC[C@H]2C(=O)O)cc1	166
CC(C)NC1=NS(=O)(=O)c2ccc(CC(=O)O)cc2N1	262 to 264
COc1cc(Nc2nccc(Nc3ccc(N4CCN(C)CC4)cc3)n2)cc(OC)c1OC	104
CCSc1ccc2c(c1)C(Cl)Cc1ccc(F)cc1S2 (centres undefined)	99
COc1cc(-c2cc(=O)c3ccc(OCC(O)CNC(C)(C)C)cc3o2)cc(OC)c1OC (centres undefined)	119 to 120
CCC1CCc2c(sc3cc(OCc4ccccc4)ccc3c2=O)C1 (centres undefined)	94
CC(=O)SCC1(C)C(=O)N2CCCC(C(=O)OC(C)(C)C)N2C1=O (centres undefined)	78 to 79
CC(C)(C)OC(=O)n1cccc1-c1ccc2c(c1)C1(CCCC1)C(=O)N2	179 to 180
